A short description of series [1]: Storage stability in DMEM, LC-MS/MS after DMEM extraction. The class given is physicochemical. The settings on record: for Stability 4 °C / Stability AS (autosampler) / Stability −20 °C / Stability BT (benchtop): 24 h; for Stability FT (freeze-thaw): freeze-thaw cycles; for Stability −80 °C 91 d: long-term freezing; for Stability BT (benchtop): room temperature. On the procedure: To assess stability, low and high concentrations of all analytes were subjected to different storage conditions. […] For determination of long-term stability, samples were stored in either plasma or DMEM at –80 °C for 90 and 91 days, respectively. To measure short-term stability, samples were stored at room temperature, in an autosampler, at 4 °C, and at –20 °C for 24 h. In addition, freeze-thaw cycles were performed according to FDA guidance for the standard solutions. For comparison, at least three freshly prepared samples were prepared for each concentration level. With the exception of autosampler stability, the internal standard was always added to all samples before sample processing was started.
Regarding the medium, validation procedures were performed with high-glucose DMEM supplemented with 100 U/mL penicillin and 100 μg/mL streptomycin, but not with FBS. With the exception of selectivity, where both media (GlutaMAX™-I or UltraGlutamine^TM I supplement) were tested, only Gibco™ DMEM with GlutaMAX™-I was used for all other analytical procedures.
Liquid-liquid extraction was performed identically for plasma and DMEM samples. After addition of the 1.0 µM internal standard, 50 µL of 0.8 M alkaline carbonate buffer was added. The extraction was performed once with 890 µL ethyl acetate. Tubes were then shaken for 10 min at 1400 rpm using a Thermomixer 5436 (Eppendorf AG, Hamburg, Germany) followed by centrifugation for 5 min at 14,000 rpm using a Centrifuge 5415 C (Eppendorf AG, Hamburg, Germany). Subsequently, 850 µL of the supernatant was transferred to a new tube and evaporated to dryness for 35 min at 35 °C (8 min heating time) using a SpeedVac SPD130DLX (Thermo Fisher Scientific, Asheville, NC, USA). Reconstitution was performed with 200 µL of a acetonitrile/water/H2SO4 [3/0.5/0.5] mixture, shaken at 1400 rpm for 5 min, and centrifuged again at 14,000 rpm for 5 min. Finally, 155 µL of the sample was transferred to an LC vial and analyzed.
To assess stability, low and high concentrations of all analytes were exposed to different storage conditions. To determine long-term stability, samples were stored in either plasma or DMEM at −80 °C for 90 and 91 days, respectively. To determine short-term stability, samples were stored for 24 h on the bench at room temperature, in the autosampler, at 4 °C, and at −20 °C. In addition, freeze-thaw cycles were performed for the standard solutions according to FDA guidance. At least three freshly prepared samples per concentration level were prepared for comparison. With the exception of the stability test in the autosampler, the internal standard was always added to all samples before sample processing was started. However, to avoid concentration fluctuations due to possible degradation of the analytes, stock solutions were prepared twice a week and stored at −20 °C. Each storage condition was examined in the dark. For all conditions studied, n = 3–6 replicates were prepared.

Series [2] in a line: Quantification of KD87 in plasma of mice after intraperitoneal injection. As to conditions: male, NSG (NOD.Cg-Prkdc^scid Il2rg^tm1Wjl/SzJ), mouse, ip, 20 mg/kg, 20 mg/kg intraperitoneal, mean ± SD n = 8. The class given is in vivo. How it is done:
To apply the method validated for plasma, an animal experiment was performed in which KD87 (20 mg/kg body weight) was injected intraperitoneally into NOD.Cg-Prkdc^scid Il2rg^tm1Wjl/SzJ (NSG) mice followed by determination of the plasma concentration of KD87 at two fixed time points, i.e., 30 and 60 min, after administration. For this initial investigation, KD87 was selected because it has shown viability-reducing effects on a large panel of tumor cells both in the present study and in a previous study, making it a good candidate for future in vivo experiments.
Before starting plasma extraction and protein precipitation, 10 µL of the sample plasma was mixed with 40 µL of human plasma. After appropriate sample preparation by protein precipitation or liquid-liquid extraction, KD87 was successfully detected and quantified by LC-MS/MS. Here, for each blood draw, two separate plasma aliquots were extracted or precipitated and subsequently measured. In addition, the MRM transitions of the aglycone KD88 were monitored during the measurement to observe possible deglycosylation of KD87. […] Individual concentrations are presented for each mouse separately (Figure 5A,B) and as averages of the four treated mice (Figure 5C). For protein precipitation, a concentration of 1.89 ± 0.30 µM was determined 30 min after intraperitoneal injection, increasing to 2.93 ± 0.36 µM after 60 min (Figure 5C). Similar values are obtained after liquid-liquid extraction of plasma sample, which yielded a concentration of 2.19 ± 0.32 µM and 3.46 ± 0.50 µM after 30 and 60 min, respectively (Figure 5C).
Figure 5 Quantification of KD87 in plasma of mice 30 and 60 min after intraperitoneal injection of KD87 (20 mg/kg body weight). Prior to sample processing, mouse plasma was diluted 1:5 with human plasma. Shown are the individual values of KD87 in mouse plasma (A) after protein precipitation and (B) after liquid-liquid extraction, as well as (C) the average KD87 concentration values of all four mice for both processing methods. (A,B): The values of two separately processed plasma aliquots of one blood sample per mouse are shown. (C): The bar chart summarizes the results of measurements from panels (A,B), expressed as mean ± standard deviation (SD) of n = 8 values per column.
For experiments, four 13-week-old male NSG mice with a body weight between 20 and 30 g were used. KD87 was administered via intraperitoneal injection at a dose of 20 mg/kg body weight. For this purpose, KD87 was dissolved in ethanol and Cremophore EL (1:1) to a concentration of 6 mg/mL, and diluted further in sterile saline solution (NaCl 0.9%, B. Braun Melsungen AG, Melsungen, Germany) to a final concentration of 2 mg/mL. Per mouse, a total volume of 10 mL/kg of body weight was administered. […]

As to `O=C1/C(=C2/C(=O)N([C@@H]3O[C@H](CO)[C@@H](O)[C@H](O)[C@@H]3O)c3ccccc32)Sc2ccccc21` [KD85, 3-[3′-oxo-benzo[b]thiophene-2′-(Z)-ylidene]-1-(β-D-mannopyranosyl)-oxindole], in series [1] (3.0 nM), the “Stability 4 °C” value is on record as 98.3 ± 2.2%, the “Stability AS (autosampler)” value is 75.6 ± 5.8%, the “Stability −20 °C” value is 86.8 ± 1.8% and the “Stability FT (freeze-thaw)” value was determined as 99.4 ± 4.0%. In series [1] (3.0 nM), the “Stability −80 °C 91 d” value was determined as 93.2 ± 6.9% and the “Stability BT (benchtop)” value is 115.3 ± 1.8%. Further, in series [1] (40 nM), the “Stability 4 °C” value is 80.5 ± 1.8%, the “Stability AS (autosampler)” value is given as 71.6 ± 1.9%, the “Stability −20 °C” value turned out to be 81.9 ± 3.9% and the “Stability FT (freeze-thaw)” value turned out to be 99.9 ± 3.3%. In addition, in series [1] (40 nM), the “Stability −80 °C 91 d” value is on record as 92.7 ± 5.7% and the “Stability BT (benchtop)” value came out at 100.5 ± 1.9%.
Regarding `O=C1/C(=C2/C(=O)N([C@@H]3O[C@H](CO)[C@@H](O)[C@H](O)[C@H]3O)c3ccccc32)Sc2ccccc21` [KD87, 3-[3′-oxo-benzo[b]thiophen-2′-(Z)-ylidene]-1-(β-D-glucopyranosyl)-oxindole], in series [1] (3.0 nM), the “Stability 4 °C” value came to 81.4 ± 3.3%, the “Stability AS (autosampler)” value came to 101.2 ± 7.4%, the “Stability −20 °C” value is 87.7 ± 3.2% and the “Stability FT (freeze-thaw)” value came to 98.3 ± 5.4%. Besides, in series [1] (3.0 nM), the “Stability −80 °C 91 d” value worked out at 97.8 ± 6.0% and the “Stability BT (benchtop)” value came out at 104.9 ± 4.0%. Also, in series [1] (40 nM), the “Stability 4 °C” value is 84.5 ± 2.1%, the “Stability AS (autosampler)” value came out at 81.7 ± 3.7%, the “Stability −20 °C” value worked out at 84.2 ± 2.6% and the “Stability FT (freeze-thaw)” value was determined as 101.9 ± 5.4%. Also, in series [1] (40 nM), the “Stability −80 °C 91 d” value amounted to 92.3 ± 7.8% and the “Stability BT (benchtop)” value stood at 98.3 ± 1.1%. In series [2] (liquid-liquid extraction), this compound showed a concentration at 30 min of 2190 ± 320 nM and a concentration at 60 min of 3460 ± 500 nM. In series [2] (protein precipitation), the concentration at 30 min was determined as 1890 ± 300 nM and the concentration at 60 min turned out to be 2930 ± 360 nM.

Values taken from paper PMC9101087, “A Sensitive LC-MS/MS Method for the Simultaneous Determination of Two Thia-Analogous Indirubin N-Glycosides and Indirubin-3′-Monoxime in Plasma and Cell Culture Medium” (Molecules, 2022).
